Results published in US9499502B2, “5-substituted iminothiazines and their mono- and dioxides as BACE inhibitors, compositions, and their use” (Merck Sharp & Dohme Corp., priority 2011, dated 2016).
Where two headings read alike, the source gives them in different places.

What was measured:
[1] = target: soluble human BACE1 catalytic domain (Homo sapiens (Human), UniProt P56817); assay: BACE1 HTRF FRET Assay; conditions: for inhibition at 10 µM: read-out: BACE1 inhibition, % Inh. at 10 μM, at 10 μM
soluble human BACE1 catalytic domain, sequence (P56817 75-416): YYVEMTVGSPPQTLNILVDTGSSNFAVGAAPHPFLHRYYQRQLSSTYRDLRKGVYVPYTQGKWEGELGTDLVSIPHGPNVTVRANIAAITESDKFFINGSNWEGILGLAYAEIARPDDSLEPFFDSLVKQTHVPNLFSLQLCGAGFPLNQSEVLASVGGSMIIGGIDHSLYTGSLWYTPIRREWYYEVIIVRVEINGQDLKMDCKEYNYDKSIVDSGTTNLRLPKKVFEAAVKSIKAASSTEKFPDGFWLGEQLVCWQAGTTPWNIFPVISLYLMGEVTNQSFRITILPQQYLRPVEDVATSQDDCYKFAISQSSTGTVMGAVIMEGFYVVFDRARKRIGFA

[2] = target: purified human autoBACE-2 (Homo sapiens (Human), UniProt Q9Y5Z0); assay: BACE-2 Assay (BACE-HTRF assay); type: biochemical; conditions: for inhibition at 10 µM: read-out: inhibition of BACE2 at 10 μM
purified human autoBACE-2, sequence (Q9Y5Z0 63-473): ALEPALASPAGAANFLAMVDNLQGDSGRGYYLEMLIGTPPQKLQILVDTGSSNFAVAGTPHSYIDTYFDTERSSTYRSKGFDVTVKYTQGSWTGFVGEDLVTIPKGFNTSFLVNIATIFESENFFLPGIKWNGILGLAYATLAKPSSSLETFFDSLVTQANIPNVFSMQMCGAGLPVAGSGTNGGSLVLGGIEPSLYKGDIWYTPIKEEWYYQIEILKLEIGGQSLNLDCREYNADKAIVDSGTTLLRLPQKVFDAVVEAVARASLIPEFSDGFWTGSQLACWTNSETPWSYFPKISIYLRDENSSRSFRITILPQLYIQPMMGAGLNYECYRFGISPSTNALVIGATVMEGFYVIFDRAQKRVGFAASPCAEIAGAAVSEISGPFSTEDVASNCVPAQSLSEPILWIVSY
Protocol: Inhibitor IC50s at purified human autoBACE-2 are determined in a time-resolved endpoint proteolysis assay that measures hydrolysis of the QSY7-[…]-Eu-amide FRET peptide substrate (BACE-HTRF assay). […] DMSO is present at 5% final concentration in the assay. Following laser excitation of sample wells at 320 nm, the fluorescence signal at 620 nm is collected for 400 ms following a 50 μs delay on a RUBYstar HTRF plate reader (BMG Labtechnologies). Raw RFU data is normalized to maximum (1.0 nM BACE/DMSO) and minimum (no enzyme/DMSO) RFU values. […] The Ki values are calculated from the IC50 using the Cheng-Prusoff equation.

[3] = Ki calculated from IC50 using the Cheng-Prusoff equation, read-out: BACE2 Ki
[4] = read-out: BACE1 Ki, Ki calculated from IC50 using the Cheng-Prusoff equation

SMILES | Ki [2, 3] [nM] | Ki [1, 4] [nM] | further results
Cc1nc2ccc(CC3(C)C(=N)N[C@](C)(c4cc(F)ccc4F)CS3(=O)=O)cc2s1 (mixture of isomers) [32b-a and 32b-b] | – | – | inhibition at 10 µM [1]: 11%; inhibition at 10 µM [2]: 1 to 24%
C[C@@]1(C2CC2)C(=N)N[C@](C)(c2cc([N+](=O)[O-])ccc2F)CS1(=O)=O [Entry 30] | – | – | inhibition at 10 µM [1]: 30%; inhibition at 10 µM [2]: 29 to 47%
C[C@@]1(C2CCC2)C(=N)N[C@](C)(c2cc(N)ccc2F)CS1(=O)=O [Entry 40] | – | – | inhibition at 10 µM [1]: 20%; inhibition at 10 µM [2]: 29 to 47%
C[C@@]1(c2cccc(F)c2)C(=N)N[C@](C)(c2cc(N)ccc2F)CS1(=O)=O [Entry 61] | – | – | inhibition at 10 µM [1]: 27%; inhibition at 10 µM [2]: 29 to 47%
C[C@@]1(c2cccc(C(F)(F)F)c2)C(=N)N[C@](C)(c2cc(N)ccc2F)CS1(=O)=O [Entry 69] | – | – | inhibition at 10 µM [1]: 17%; inhibition at 10 µM [2]: 29 to 47%
C[C@@]1(c2ccccn2)C(=N)N[C@](C)(c2cc(N)ccc2F)CS1(=O)=O [Entry 77] | – | – | inhibition at 10 µM [1]: 25%; inhibition at 10 µM [2]: 29 to 47%
C[C@@]1(c2cccc(F)c2)C(=N)N[C@](C)(c2sc(Br)cc2F)CS1(=O)=O [Entry 88] | – | – | inhibition at 10 µM [1]: 34%; inhibition at 10 µM [2]: 29 to 47%
CC1(C)C(=N)N[C@](C)(c2cc(N)ccc2F)CS1(=O)=O [Example 2-2] | – | – | Ki ([1]; read-out: BACE1 inhibition, Ki): 6100 nM; Ki [2]: 500 to 10000 nM
CC1(C)C(=N)N[C@](C)(c2cc(N)cc(F)c2F)CS1(=O)=O [Example 2A-5] | 500 to 10000 | – | inhibition at 10 µM [1]: 51%
CC1(C)C(N)=N[C@](C)(c2cc(Br)ccc2F)CS1(=O)=O [Example 3-3] | 500 to 10000 | – | inhibition at 10 µM [1]: 56%
CC1(C)C(=N)N[C@](C)(c2sc(Br)cc2Cl)CS1(=O)=O [Example 4-1] | 500 to 10000 | – | Ki ([1]; read-out: BACE1 inhibition, Ki): 1500 nM
COc1ccc(C(=O)Nc2cc(F)c(F)c([C@]3(C)CS(=O)(=O)C(C)(C)C(=N)N3)c2F)nc1 [Example 9ac] | 13 | 18.9 | –
CC1(C)C(=N)N[C@](C)(c2c(F)c(F)cc(NC(=O)c3ccc(C(F)(F)F)cn3)c2F)CS1(=O)=O [Example 9ad] | 41 | 7.9 | –
COc1cnc(C(=O)Nc2cc(F)c(F)c([C@]3(C)CS(=O)(=O)C(C)(C)C(=N)N3)c2F)cn1 [Example 9ae] | 69 | 45.4 | –
CC(F)(F)C(=O)Nc1ccc(F)c([C@]2(C)CS(=O)(=O)C(C)(C)C(=N)N2)c1 [Example 9ai] | 18 | 82 | –
COCC(=O)Nc1ccc(F)c([C@]2(C)CS(=O)(=O)C(C)(C)C(=N)N2)c1 [Example 9at] | 14 | 60 | –
CC1(C)C(=N)N[C@](C)(c2cc(NC(=O)C3CCC3(F)F)ccc2F)CS1(=O)=O (stereo partly drawn) [Example 9aw] | 47 | 299 | –
CC1(C)C(=N)N[C@](C)(c2cc(NC(=O)c3ccno3)ccc2F)CS1(=O)=O [Example 9ax] | 22 | 82 | –
CC1(C)C(=N)N[C@](C)(c2cc(NC(=O)c3ncc(F)cc3F)cc(F)c2F)CS1(=O)=O [Example 9ba] | 1 | 21 | –
CC1(C)C(=N)N[C@](C)(c2cc(NC(=O)C(F)F)cc(F)c2F)CS1(=O)=O [Example 9bd] | 40 | 233 | –
CC1(C)C(=N)N[C@](C)(c2cc(NC(=O)c3ccc(C(F)(F)F)cn3)cc(F)c2F)CS1(=O)=O [Example 9bf] | 11 | 25 | –
CC1(C)C(=N)N[C@](C)(c2cc(NC(=O)c3ccc(C#N)cn3)cc(F)c2F)CS1(=O)=O [Example 9bg] | 3 | 6 | –
Cc1ccc(C(=O)Nc2cc(F)c(F)c([C@]3(C)CS(=O)(=O)C(C)(C)C(=N)N3)c2)nc1 [Example 9bh] | 4 | 13 | –
CC1(C)C(=N)N[C@](C)(c2cc(NC(=O)c3ccc(Cl)cc3)cc(F)c2F)CS1(=O)=O [Example 9bi] | 9 | 22 | –

SMILES | Ki [2, 3] [nM] | Ki [1, 4] [nM] | further results
COCC(=O)Nc1cc(F)c(F)c([C@]2(C)CS(=O)(=O)C(C)(C)C(=N)N2)c1 [Example 9bk] | 12 | 112 | –
CC(F)(F)C(=O)Nc1cc(F)c(F)c([C@]2(C)CS(=O)(=O)C(C)(C)C(=N)N2)c1 [Example 9bl] | 40 | 79 | –
Cc1cnc(C(=O)Nc2cc(F)c(F)c([C@]3(C)CS(=O)(=O)C(C)(C)C(=N)N3)c2)cn1 [Example 9bo] | 22 | 69 | –
CC1(C)C(=N)N[C@](C)(c2nc(NC(=O)c3cnc(C(F)F)cn3)ccc2F)CS1(=O)=O [Example 9cj] | 21 | – | –
CC[C@]1(C)C(=N)N[C@](C)(c2cc(NC(=O)c3ccc(OC)cn3)ccc2F)CS1(=O)=O [Example 9cm-b] | 11 to 100 | – | –
CC[C@]1(C)C(=N)N[C@](C)(c2cc(NC(=O)c3cnc(OC)cn3)ccc2F)CS1(=O)=O [Example 9cn-b] | 11 to 100 | – | –
C[C@@]1(c2cc(NC(=O)c3ccc(Cl)cn3)ccc2F)CS(=O)(=O)[C@@](C)(c2cccc(F)c2)C(=N)N1 [Example 9db-b] | 11 to 100 | – | –
COc1cnc(C(=O)Nc2ccc(F)c([C@]3(C)CS(=O)(=O)[C@](C)(c4cc(C(F)(F)F)ccn4)C(=N)N3)c2)cn1 [Example 9ee-b] | 11 to 100 | – | –
CC1(C)C(=N)N[C@](C)(c2cc(NC(=O)c3cnc(OCC4CC4)cn3)ccc2F)CS1(=O)=O [Example 9p] | 16 | – | –
CC1(C)C(=N)N[C@](C)(c2sc(-c3cccc(-c4nnco4)c3)cc2Cl)CS1(=O)=O [Example 27ae] | 21 | – | –
COc1cccc([C@@]2(C)C(=N)N[C@](C)(c3ccc(F)cc3F)CS2(=O)=O)c1 [Example 32f-a] | – | – | Ki ([1]; read-out: BACE1 Ki): 1210 nM
COc1cccc([C@]2(C)C(=N)N[C@](C)(c3ccc(F)cc3F)CS2(=O)=O)c1 [Example 32f-b] | – | – | inhibition at 10 µM [1]: 30%
C[C@@]1(c2cccc(Br)c2)C(=N)N[C@](C)(c2ccc(F)cc2F)CS1(=O)=O [Example 32g-b] | – | – | Ki ([1]; read-out: BACE1 Ki): 8830 nM
C[C@@]1(c2cccc(C(F)(F)F)c2)C(=N)N[C@](C)(c2ccc(F)cc2F)CS1(=O)=O [Example 32h-b] | – | – | Ki ([1]; read-out: BACE1 Ki): 2120 nM
COc1cccc(C[C@@]2(C)C(=N)N[C@](C)(c3ccc(F)cc3F)CS2(=O)=O)c1 [Example 32i-a] | – | – | Ki ([1]; read-out: BACE1 Ki): 3120 nM
COc1cccc(C[C@]2(C)C(=N)N[C@](C)(c3ccc(F)cc3F)CS2(=O)=O)c1 [Example 32i-b] | – | – | Ki ([1]; read-out: BACE1 Ki): 3820 nM
C[C@]1(Cc2cccc(Br)c2)C(=N)N[C@](C)(c2ccc(F)cc2F)CS1(=O)=O [Example 32j-a] | – | – | Ki ([1]; read-out: BACE1 Ki): 2100 nM
C[C@@]1(c2ccc(F)cc2F)CS(=O)(=O)[C@](C)(Cc2cccc(Br)c2)C(=N)N1 [Example 32j-b] | – | – | Ki ([1]; read-out: BACE1 Ki): 1270 nM
C[C@@]1(c2ccc(F)cc2F)CS(=O)(=O)[C@@](C)(c2cccc(OCc3ccccc3)c2)C(=N)N1 [Example 34a] | – | – | Ki ([1]; read-out: BACE1 Ki): 2170 nM
C[C@@]1(c2ccc(F)cc2F)CS(=O)(=O)[C@@](C)(c2cccc(OCC3CC3)c2)C(=N)N1 [Example 34b] | – | – | Ki ([1]; read-out: BACE1 Ki): 1130 nM
C[C@@]1(c2cc(F)ccc2F)CS(=O)(=O)[C@@](C)(c2cccc(O)c2)C(=N)N1 [Example 34c-a] | – | – | Ki ([1]; read-out: BACE1 inhibition, Ki): 1000 nM
C[C@@]1(c2cccc(O)c2)C(=N)N[C@](C)(c2cc(F)ccc2F)CS1(=O)=O [Example 34c-b] | – | – | inhibition at 10 µM [1]: 48%
C[C@@]1(c2cc(F)ccc2F)CS(=O)(=O)[C@@](C)(c2cccc(OCc3ccccc3)c2)C(=N)N1 [Example 34d-a] | – | – | Ki ([1]; read-out: BACE1 inhibition, Ki): 2900 nM
COc1cccc2cc(-c3ccc(F)c([C@]4(C)CS(=O)(=O)C(C)(C)C(=N)N4)c3)[nH]c12 [compound 11] | < 200 | – | –
